From patent US9745280B2, “Compound or pharmaceutically acceptable salt thereof, and pharmaceutical composition containing same as active ingredient” (SNU R&DB FOUNDATION, priority 2012, dated 2017)
pIC50: −log10 of the molar value.

Assays:
[1] = tested on: human umbilical vein endothelial cells (HUVECs); experiment: Vascular endothelial cell migration, trans-well, conditioned media of hypoxic HCT116; assay type: cell-based; conditions: cell culture fluid treated at 100 nM; 4 hours
Description: (§1) First, HCT116, the human colorectal cancer cell line, was cultured in a hypoxic chamber (1% O2) as the in vitro hypoxic model. The cells were treated with deguelin, compound 69 (Example 33) and compound 54 (Example 28) at the concentrations of 1˜100 nM, followed by culture for 8 hours. Next, the culture fluid was collected and proceeded to centrifugation at 4° C. for 10 minutes (6,000×g). Cell culture fluid was obtained from the supernatant (conditioned media (CM)). The obtained cell culture fluid was treated to human umbilical vein endothelial cells (HUVECs) which were cultured separately. Then changes of angiogenesis were investigated by the following experiments.
The cell culture fluid obtained in the above preparation stage was loaded in the lower chamber of trans-well plate (6.5 mm diameter filter) and umbilical vein endothelial cells (HUVECs) were plated carefully in the upper chamber, followed by culture at 37° C. for 4 hours. The cells migrated down the filter were confirmed by H&E staining.

[2] = tested on: human umbilical vein endothelial cells (HUVECs); experiment: Vascular endothelial cell tube formation, conditioned media of hypoxic HCT116; assay type: cell-based; conditions: conditioned media of treated HCT116; 30 hours
Description: as §1
Umbilical vein endothelial cells (HUVECs) were treated with the cell culture fluid obtained in the above preparation stage. 30 hours later, tube formation was observed. As a result, tube formation was induced by the control deguelin and the compounds of the present invention.

[3] = tested on: human bronchial epithelial cells (HBEC-1 and BEAS-2B); experiment: Cytotoxicity to normal cells (MTT); assay type: cell-based; conditions: 3 days
Description: To investigate the cytotoxicity of the control deguelin, the compound 69 (Example 33), and the compound 54 (Example 28) to the normal cells, it was examined how these compounds affect the proliferation of human bronchial epithelial cells (HBEC-1 and BEAS-2B).
Particularly, HBEC-1 and BEAS-2B cells were seeded on a 96-well culture plate (5,000 cells/well), followed by culture for 24 hours. The plate was treated with 0.1% DMSO (comparative control (CT)), 1 μM of deguelin (control), or […] of the compound 69 (Example 33) and the compound 54 (Example 28) (experimental group), followed by further culture for 3 days. Cytotoxicity was evaluated by MTT assay.

[4] = tested on: human umbilical vein endothelial cells (HUVECs); experiment: Vascular endothelial cell proliferation, [3H]-thymidine incorporation, conditioned media of hypoxic HCT116; assay type: cell-based; conditions: conditioned media of HCT116 treated at 1˜100 nM under hypoxia; HUVECs 18 hours
Description: as §1
The cell culture fluid prepared in the above preparation stage was treated to umbilical vein endothelial cells (HUVECs) for 18 hours. Cell proliferation was confirmed by [^3H]-thymidine incorporation assay.

[5] = tested on: H1299 NSCLC (non-small cell lung cancer) cells; experiment: Cancer cell growth inhibition (MTS); assay type: cell-based; conditions: Homo sapiens
Description: To investigate the inhibitory effect of the compounds of Examples of the present invention on cancer cell growth, the following experiment was performed. Particularly, H1299 NSCLC (non-small cell lung cancer) cells were distributed in a 96-well plate at the density of 5×10^3 cells/well, followed by culture in a 37° C., 5% CO2 incubator for 24 hours. The compound of each example was dissolved in DMSO (10 nM, 100 nM, 1 μM, 10 μM), which was treated to each well. 48 hours later, cell growth was measured by using MTS reagent (3-(4,5-dimethylthiazole-2-yl)-5-(3-carboxymethoxyphenyl)-2-(4-sulfophenyl)-2H-tetrazolium). The experiment was performed in triplicate and the standard error of the analysis result was corrected.

[6] = Body weight of treated rats; assay type: in vivo
[7] = previous study; decreased tyrosine hydroxylase immunoreactivity; cited from earlier work
[8] = tested on: lung cancer cells with or without anticancer drug resistance; experiment: Anchorage-independent (soft agar) colony formation assay; assay type: cell-based; conditions: 2 weeks
Excerpt: (§2) H1299, H460, H292, and BEAS-2B cells were purchased from the ATCC. The other NSCLC cells were kindly provided by Dr. John V. Heymach (MD Anderson Cancer Center, Houston, Tex.). HUVECs were purchased from Invitrogen. Human bronchial epithelial (HBE) cells were kindly provided by Dr. John Minna (The University of Texas Southwestern Medical Center, Dallas, Tex.). Human retinal pigment epithelial (RPE) cells were kindly provided by Dr. Jeong Hun Kim (College of Medicine, Seoul National University, Seoul, Republic of Korea). HT-22 cells were provided by Dr. Dong Gyu Jo (College of Pharmacy, Sungkyunkwan University, Suwon, Republic of Korea). Cell lines were authenticated and validated at the Korean Cell Line Bank using AmplFLSTR identifier PCR Amplification Kit (Applied Biosystems; cat. No. 4322288) in 2013. Cells passed for fewer than 6 months after receipt or resuscitation of validated cells were used in this study.
HT-22 and RPE cells were cultured in DMEM supplemented with 10% fetal bovine serum (FBS) and antibiotics. […]
For the anchorage-independent colony formation assay, the cells were mixed with sterile 1% agar solution (final concentration of 0.4%) and then poured onto 1% base agar in 24-well plates. […] After incubation, the colonies were stained with MTT solution and then photographed and counted.

HIF-1α = HIF-1α inhibitory activity, hypoxia-response element-luciferase in HRE-A549 cells; assay type: cell-based; conditions: HRE-A549 cells, hypoxia-chamber 24 h, luciferase activity
Description: HRE-A549 cells stably transfected with hypoxia-response element-luciferase construct were incubated in Dulbecco's modified Eagle's medium. Following overnight serum deprivation, the cells were treated with or without Deguelin or example compounds. After 1 h incubation, the cells were incubated in hypoxia-chamber for 24 h at 37° C. Luciferase activity was measured by adding luciferase assay reagent (Promega, Madison, Wis.).

[9] = tested on: lung cancer cells with or without anticancer drug resistance; experiment: Anchorage-dependent colony formation assay; assay type: cell-based; conditions: increasing concentrations, 2 weeks
Excerpt: as §2
HT-22 and RPE cells were cultured in DMEM supplemented with 10% fetal bovine serum (FBS) and antibiotics. Other cancer cells were cultured in RPMI 1640 medium supplemented with 10% FBS and antibiotics. […]
For the anchorage-dependent colony formation assay, cells were seeded onto 6-well plates at a density of 300 cells/well and then treated with increasing concentrations of example 28 compound (“SH” in FIG. 11) for 2 weeks. […] The colonies were photographed and counted.

[10] = tested on: retinal pigment epithelial cells; assay type: cell-based, human
Excerpt: (§3) We examined toxicity of example 28 compound at the cellular levels by testing the effects of example 28 compound on the viability of several normal cells, including human normal lung epithelial cells (HBE and BEAS-2B; FIG. 14), hippocampal cells (HT-22; FIG. 15), retinal pigment epithelial cells (FIG. 16), and vascular endothelial cells (HUVEC; FIG. 17).

[11] = tested on: human normal lung epithelial cells (HBE and BEAS-2B); assay type: cell-based
Excerpt: as §3

[12] = tested on: vascular endothelial cells (HUVEC); assay type: cell-based
Excerpt: as §3

[13] = tested on: hippocampal cells (HT-22); assay type: cell-based
Excerpt: as §3

HUVECs = experiment: HUVEC tube formation with conditioned medium from treated H1299 cells; assay type: cell-based; conditions: CM from H1299 cells treated under normoxic or hypoxic conditions
Description: H1299 cells were treated with example 28 compound (“SH” in FIG. 13) or deguelin for 1 d and then further incubated under normoxic or hypoxic conditions for 4 h. After incubation, the drug-containing medium was discarded and fresh serum-free medium was added to cell and further incubated for 24 h. After incubation, the conditioned medium (CM) was collected.
Briefly, the HUVECs were diluted in complete medium and seeded onto CellBIND surface 96-well plates (Corning). The cells were treated with the CM. The morphological changes of the HUVECs were photographed and scored.

Structure (SMILES): COc1ccc([C@H](C)C(=O)c2ccc3c(c2OC)C=CC(C)(C)O3)cc1OC [compound 69, (S)-2-(3,4-Dimethoxyphenyl)-1-(5-methoxy-2,2-dimethyl-2H-chromen-6-yl)propan-1-one]
- migration of vascular endothelial cells [1]: showed the inhibitory effect on the migration of vascular endothelial cells
- inhibitory effect on tube formation [2]: greater than that of the control deguelin
- cell survival rate ([3]; human, 1 μM): approximately 80%
- proliferation of vascular endothelial cells [4]: inhibited the proliferation of vascular endothelial cells dose-dependently

Structure (SMILES): COc1ccc(CC(=O)c2ccc3c(c2OC)C=CC(C)(C)O3)cc1OC [compound 54, 2-(3,4-Dimethoxyphenyl)-1-(5-methoxy-2,2-dimethyl-2H-chromen-6-yl)ethanone]
- migration of vascular endothelial cells [1]: showed the inhibitory effect on the migration of vascular endothelial cells
- pIC50 ([5]; NCI-H1299, value repeated in text): 6.85
- inhibitory effect on tube formation [2]: greater than that of the control deguelin
- cell survival rate ([3]; human, 1 μM): approximately 80%

Structure (SMILES): COc1cc2c(cc1OC)[C@@H]1C(=O)c3ccc4c(c3O[C@@H]1CO2)C=CC(C)(C)O4 [deguelin, Deguelin, reference compound]
- body weight of rats ([6]; compared with control): significantly reduced
- cell survival rate ([3]; HBEC-1 and BEAS-2B, 1 μM of deguelin, MTT): approximately 60%
- toxicity in the rat brain [7]: caused parkinsonism-like syndrome

Structure (SMILES): COc1ccc(CC(=O)c2ccc3c(c2OC)C=CC(C)(C)O3)cc1OC [Example 28, 2-(3,4-Dimethoxyphenyl)-1-(5-methoxy-2,2-dimethyl-2H-chromen-6-yl)ethanone]
- anchorage-independent colony formation [8]: remarkably superior anticancer effect
- body weight of rats ([6]; rat, in vivo): minimal influence on the body weight of rats
- pIC50 ([5]; NCI-H1299, 48 hours, MTS reagent): 6.85
- pIC50 (HIF-1α): 5.67
- proliferation of vascular endothelial cells [4]: inhibited the proliferation of vascular endothelial cells dose-dependently
- anchorage-dependent colony formation [9]: remarkably superior anticancer effect
- cytotoxicity compared with deguelin [10]: significantly reduced cytotoxicity
- cytotoxicity compared with deguelin [11]: significantly reduced cytotoxicity
- cytotoxicity compared with deguelin [12]: significantly reduced cytotoxicity
- cytotoxicity compared with deguelin [13]: significantly reduced cytotoxicity
- tube formation of HUVECs (HUVECs): formed significantly fewer tubes
